Laboratory results from BigSolDB 2.1.

CCCCCCCCCCCC(=O)O
Conditions | solubility (mole fraction)
in 1-bromopropane, 280.6 K | 0.0756
in 1-bromopropane, 283.8 K | 0.0997
in 1-bromopropane, 287.8 K | 0.15
in 1-bromopropane, 289.9 K | 0.185
in 1-bromopropane, 293.1 K | 0.239
in 1-bromopropane, 295.2 K | 0.275
in 1-bromopropane, 298.8 K | 0.34
in 1-bromopropane, 301.4 K | 0.404
in 1-bromopropane, 304.3 K | 0.473
in 1-bromopropane, 305.3 K | 0.528
in 1-bromopropane, 307.3 K | 0.573
in 1-bromopropane, 309.3 K | 0.645
in 1-bromopropane, 310.5 K | 0.709
in 1-bromopropane, 312.5 K | 0.775
in 1-bromopropane, 313.8 K | 0.859
in acetone, 286.6 K | 0.0794
in acetone, 290.1 K | 0.107
in acetone, 293.1 K | 0.146
in acetone, 293.3 K | 0.146
in acetone, 298 K | 0.224
in acetone, 299.9 K | 0.283
in acetone, 301.9 K | 0.34
in acetone, 303.4 K | 0.389
in acetone, 305.1 K | 0.449
in acetone, 306.7 K | 0.512
in acetone, 308.1 K | 0.568
in acetone, 310.9 K | 0.678
in acetone, 312 K | 0.735
in acetone, 313 K | 0.795
in acetone, 314.4 K | 0.857
in acetone, 315.2 K | 0.895
in isopropanol, 279.2 K | 0.0797
in isopropanol, 282.7 K | 0.104
in isopropanol, 285.9 K | 0.13
in isopropanol, 289.1 K | 0.164
in isopropanol, 293.1 K | 0.22
in isopropanol, 297.1 K | 0.283
in isopropanol, 301 K | 0.361
in isopropanol, 303 K | 0.409
in isopropanol, 304.4 K | 0.458
in isopropanol, 306.1 K | 0.513
in isopropanol, 308.1 K | 0.568
in isopropanol, 309.8 K | 0.648
in isopropanol, 311.2 K | 0.712
in isopropanol, 312.6 K | 0.777
in isopropanol, 314.1 K | 0.842
in isopropanol, 314.9 K | 0.896
in n-hexane, 279.9 K | 0.0292
in n-hexane, 282.5 K | 0.0408
in n-hexane, 283.6 K | 0.0502
in n-hexane, 286.9 K | 0.0736
in n-hexane, 289.7 K | 0.108
in n-hexane, 291.7 K | 0.134
in n-hexane, 293.9 K | 0.171
in n-hexane, 296.4 K | 0.223
in n-hexane, 297.5 K | 0.252
in n-hexane, 300.1 K | 0.322
in n-hexane, 301.8 K | 0.38
in n-hexane, 303.8 K | 0.442
in n-hexane, 305.9 K | 0.519
in n-hexane, 308 K | 0.593
in n-hexane, 311 K | 0.711
in n-hexane, 312.5 K | 0.777
in n-hexane, 314.2 K | 0.858
in n-propanol, 287.1 K | 0.13
in n-propanol, 289.6 K | 0.153
in n-propanol, 292.8 K | 0.192
in n-propanol, 295.1 K | 0.225
in n-propanol, 297.9 K | 0.275
in n-propanol, 299.9 K | 0.318
in n-propanol, 301.5 K | 0.353
in n-propanol, 303.5 K | 0.406
in n-propanol, 304.7 K | 0.44
in n-propanol, 306.5 K | 0.509
in n-propanol, 307.4 K | 0.541
in n-propanol, 308.7 K | 0.597
in n-propanol, 309.9 K | 0.644
in n-propanol, 310.7 K | 0.69
in n-propanol, 312.1 K | 0.749
in n-propanol, 313.4 K | 0.818
in n-propanol, 314.2 K | 0.873
in trichloroethylene, 282 K | 0.144
in trichloroethylene, 283.1 K | 0.157
in trichloroethylene, 284.6 K | 0.171
in trichloroethylene, 288.4 K | 0.216
in trichloroethylene, 291 K | 0.258
in trichloroethylene, 293 K | 0.295
in trichloroethylene, 296 K | 0.337
in trichloroethylene, 298.2 K | 0.389
in trichloroethylene, 301.2 K | 0.441
in trichloroethylene, 303.3 K | 0.516
in trichloroethylene, 306.7 K | 0.591
in trichloroethylene, 308.6 K | 0.666
in trichloroethylene, 310.5 K | 0.725
in trichloroethylene, 312.5 K | 0.806
in trichloroethylene, 313.5 K | 0.855
